According to PubChem BioAssay (NCI):
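GI50 marks 50% less growth. At the TGI there is no net growth.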

Tests used:
Assay in all cases: NCI tumour cell line growth inhibition, 384-well format
OVCAR-8 ovarian = system: OVCAR-8 ovarian
TK-10 renal = system: TK-10 renal
OVCAR-4 ovarian = system: OVCAR-4 ovarian
T-47D breast = system: T-47D breast
HOP-62 NSCLC = system: HOP-62 NSCLC
A549 NSCLC = system: A549 NSCLC
HT29 colon = system: HT29 colon
NCI-H23 lung = system: NCI-H23 lung
DU-145 prostate = system: DU-145 prostate
MDA-MB-435 melanoma = system: MDA-MB-435 melanoma
MCF7 breast = system: MCF7 breast
LOX IMVI melanoma = system: LOX IMVI melanoma
SF-295 CNS = system: SF-295 CNS

| Structure (SMILES) | GI50 (OVCAR-8 ovarian) [nM] | TGI (OVCAR-8 ovarian) [nM] | GI50 (TK-10 renal) [nM] | TGI (TK-10 renal) [nM] | GI50 (OVCAR-4 ovarian) [nM] | TGI (OVCAR-4 ovarian) [nM] | GI50 (T-47D breast) [nM] | TGI (T-47D breast) [nM] | GI50 (HOP-62 NSCLC) [nM] | TGI (HOP-62 NSCLC) [nM] | GI50 (A549 NSCLC) [nM] | TGI (A549 NSCLC) [nM] | GI50 (HT29 colon) [nM] | TGI (HT29 colon) [nM] | GI50 (NCI-H23 lung) [nM] | TGI (NCI-H23 lung) [nM] | GI50 (DU-145 prostate) [nM] | TGI (DU-145 prostate) [nM] | GI50 (MDA-MB-435 melanoma) [nM] | TGI (MDA-MB-435 melanoma) [nM] | also measured |
| --- | --- | --- | --- | --- | --- | --- | --- | --- | --- | --- | --- | --- | --- | --- | --- | --- | --- | --- | --- | --- | --- |
| O=C(CCCCCCC(=O)N/N=C/c1ccc(N(c2ccccc2)c2ccccc2)cc1)NO | 1500 | 3880 | 255 | 720 | 686 | 2000 | 562 | 1600 | 2040 | 5860 | 1840 | 3830 | 1800 | 3450 | 1560 | 3170 | 1740 | 3370 | 3910 | 11900 | GI50 (MCF7 breast): 297 nM; TGI (MCF7 breast): 1720 nM; GI50 (LOX IMVI melanoma): 190 nM; TGI (LOX IMVI melanoma): 369 nM; GI50 (SF-295 CNS): 1750 nM; TGI (SF-295 CNS): 3370 nM |
| CS(=O)(=O)N1CCN(Cc2cc3nc(-c4cccc5[nH]ncc45)nc(N4CCOCC4)c3s2)CC1 | 1110 | > 100000 | 203 | 1120 | 1380 | 41200 | 49.4 | 341 | 3110 | > 100000 | 533 | > 100000 | 744 | 14700 | 570 | 18600 | 581 | > 100000 | 1180 | 11900 | GI50 (MCF7 breast): 58.2 nM; TGI (MCF7 breast): 16300 nM; GI50 (LOX IMVI melanoma): 827 nM; TGI (LOX IMVI melanoma): 11700 nM; GI50 (SF-295 CNS): 454 nM; TGI (SF-295 CNS): 3590 nM |
